Reference: PubChem BioAssay (NCI)
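Cultured in 96-well plates, cells were exposed to test compound for 48 hours across five concentrations. The concentration for full growth arrest is given as TGI.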

Assays:
Assay in all cases: growth of human tumour cells (NCI), 48 h
[1] = test system: SF-539 CNS
[2] = test system: SNB-75 CNS
[3] = test system: NCI-H226 lung
[4] = test system: KM20L2 colon
[5] = test system: K-562 leukemia
[6] = test system: SW-620 colon
[7] = test system: HT29 colon
[8] = test system: NCI-H522 lung
[9] = test system: DMS 273 small cell lung
[10] = test system: SNB-78 CNS
[11] = test system: LXFL 529 NSCLC
[12] = test system: UACC-62 melanoma
[13] = test system: TK-10 renal
[14] = test system: HCT-15 colon
[15] = test system: DLD-1 colon
[16] = test system: HL-60(TB) leukemia
[17] = test system: SF-295 CNS
[18] = test system: HCC-2998 colon
[19] = test system: MOLT-4 leukemia
[20] = test system: UACC-257 melanoma
[21] = test system: OVCAR-8 ovarian
[22] = test system: CCRF-CEM leukemia
[23] = test system: RPMI-8226 leukemia
[24] = test system: M14 melanoma
[25] = test system: NCI-H460 lung
[26] = test system: SF-268 CNS
[27] = test system: 786-0 renal
[28] = test system: XF 498 CNS
[29] = test system: HOP-92 NSCLC
[30] = test system: NCI-H23 lung
[31] = test system: COLO 205 colon
[32] = test system: EKVX NSCLC
[33] = test system: A549 NSCLC
[34] = test system: HOP-18 NSCLC
[35] = test system: SN12C renal
[36] = test system: SK-OV-3 ovarian
[37] = test system: M19-MEL melanoma
[38] = test system: HOP-62 NSCLC
[39] = test system: OVCAR-3 ovarian
[40] = test system: OVCAR-4 ovarian
[41] = test system: LOX IMVI melanoma
[42] = test system: SR leukemia
[43] = test system: SK-MEL-28 melanoma
[44] = test system: MALME-3M melanoma
[45] = test system: SNB-19 CNS
[46] = test system: ACHN renal
[47] = test system: DMS 114 small cell lung
[48] = test system: KM12 colon
[49] = test system: U251 CNS
[50] = test system: HCT-116 colon
[51] = test system: UO-31 renal
[52] = test system: RXF 393 renal
[53] = test system: IGROV1 ovarian
[54] = test system: SK-MEL-2 melanoma
[55] = test system: SK-MEL-5 melanoma
[56] = test system: OVCAR-5 ovarian
[57] = test system: A498 renal
[58] = test system: CAKI-1 renal
[59] = test system: RXF-631 renal

`C=CC1(C)CCC(C(C)C(=O)C(C=C(C)C)OC(C)=O)C12C(=O)Oc1ccccc1C2=O` (stereo not given) was tested, and the TGI [1] was > 100 µM, the TGI [2] was > 100 µM and the TGI [3] was > 100 µM. For the same molecule, the TGI [4] was > 100 µM, the TGI [5] was > 100 µM and the TGI [6] was > 100 µM. The TGI [7] was > 100 µM, the TGI [8] was > 100 µM and the TGI [9] was > 100 µM. The TGI [10] was > 100 µM, the TGI [11] was > 100 µM and the TGI [12] was > 100 µM. For the same molecule, the TGI [13] was > 100 µM, the TGI [14] was > 100 µM and the TGI [15] was > 100 µM. The TGI [16] was 64.6 µM, the TGI [17] was > 100 µM and the TGI [18] was > 100 µM. The TGI [19] was 78.7 µM, the TGI [20] was > 100 µM and the TGI [21] was > 100 µM. The TGI [22] was > 100 µM, the TGI [23] was 68.2 µM and the TGI [24] was > 100 µM. The TGI [25] was > 100 µM, the TGI [26] was > 100 µM and the TGI [27] was > 100 µM. The TGI [28] was > 100 µM, the TGI [29] was > 100 µM and the TGI [30] was > 100 µM. For the same molecule, the TGI [31] was > 100 µM, the TGI [32] was > 100 µM and the TGI [33] was > 100 µM. The TGI [34] was > 100 µM, the TGI [35] was > 100 µM and the TGI [36] was > 100 µM. The TGI [37] was > 100 µM, the TGI [38] was > 100 µM and the TGI [39] was > 100 µM. For the same molecule, the TGI [40] was > 100 µM, the TGI [41] was > 100 µM and the TGI [42] was > 100 µM. The TGI [43] was > 100 µM, the TGI [44] was > 100 µM and the TGI [45] was > 100 µM. The TGI [46] was > 100 µM, the TGI [47] was > 100 µM and the TGI [48] was > 100 µM. The TGI [49] was > 100 µM, the TGI [50] was > 100 µM and the TGI [51] was > 100 µM. For the same molecule, the TGI [52] was > 100 µM, the TGI [53] was > 100 µM and the TGI [54] was > 100 µM.

`Oc1cccc2c1NC1=C(CCC/C1=C\c1ccccc1)C2` was tested, and the TGI [1] was > 100 µM, the TGI [3] was > 100 µM and the TGI [4] was > 100 µM. For the same molecule, the TGI [5] was > 100 µM, the TGI [6] was > 100 µM and the TGI [7] was > 100 µM. For the same molecule, the TGI [8] was 83.5 µM, the TGI [9] was > 100 µM and the TGI [11] was > 100 µM. For the same molecule, the TGI [13] was > 100 µM, the TGI [14] was > 100 µM and the TGI [16] was > 100 µM. For the same molecule, the TGI [17] was > 100 µM, the TGI [18] was > 100 µM and the TGI [19] was > 100 µM. For the same molecule, the TGI [20] was > 100 µM, the TGI [21] was > 100 µM and the TGI [22] was > 100 µM. For the same molecule, the TGI [23] was > 100 µM, the TGI [24] was > 100 µM and the TGI [25] was > 100 µM. For the same molecule, the TGI [26] was > 100 µM, the TGI [27] was > 100 µM and the TGI [28] was > 100 µM. For the same molecule, the TGI [30] was > 100 µM, the TGI [31] was > 100 µM and the TGI [32] was > 100 µM. The TGI [33] was > 100 µM, the TGI [36] was > 100 µM and the TGI [37] was > 100 µM. The TGI [38] was > 100 µM, the TGI [39] was > 100 µM and the TGI [41] was > 100 µM. The TGI [42] was > 100 µM, the TGI [43] was > 100 µM and the TGI [44] was > 100 µM. The TGI [45] was > 100 µM, the TGI [46] was > 100 µM and the TGI [55] was > 100 µM. The TGI [47] was > 100 µM, the TGI [48] was > 100 µM and the TGI [49] was > 100 µM. The TGI [50] was > 100 µM, the TGI [51] was > 100 µM and the TGI [53] was > 100 µM.

For `COC(=O)c1c[nH]cc1CCc1c[nH]cc1C(=O)OC`, the TGI [1] was > 100 µM, the TGI [56] was > 100 µM and the TGI [3] was > 100 µM. For the same molecule, the TGI [4] was > 100 µM, the TGI [5] was > 100 µM and the TGI [6] was > 100 µM. The TGI [7] was > 100 µM, the TGI [8] was > 100 µM and the TGI [9] was > 100 µM. For the same molecule, the TGI [10] was > 100 µM, the TGI [57] was > 100 µM and the TGI [11] was > 100 µM. For the same molecule, the TGI [13] was > 100 µM, the TGI [14] was > 100 µM and the TGI [16] was > 100 µM. The TGI [17] was > 100 µM, the TGI [18] was > 100 µM and the TGI [19] was > 100 µM. The TGI [20] was > 100 µM, the TGI [21] was > 100 µM and the TGI [22] was > 100 µM. The TGI [25] was > 100 µM, the TGI [26] was > 100 µM and the TGI [27] was > 100 µM. For the same molecule, the TGI [28] was > 100 µM, the TGI [29] was > 100 µM and the TGI [30] was > 100 µM. The TGI [31] was > 100 µM, the TGI [32] was > 100 µM and the TGI [33] was > 100 µM. For the same molecule, the TGI [35] was > 100 µM, the TGI [36] was > 100 µM and the TGI [37] was > 100 µM. For the same molecule, the TGI [38] was > 100 µM, the TGI [39] was > 100 µM and the TGI [40] was > 100 µM. The TGI [41] was > 100 µM, the TGI [42] was > 100 µM and the TGI [43] was > 100 µM. The TGI [58] was > 100 µM, the TGI [44] was > 100 µM and the TGI [45] was > 100 µM. For the same molecule, the TGI [46] was > 100 µM, the TGI [48] was > 100 µM and the TGI [49] was > 100 µM. The TGI [50] was > 100 µM, the TGI [52] was > 100 µM and the TGI [53] was > 100 µM. The TGI [54] was > 100 µM.

In the case of `COC(=O)C1(C)C=C(Nc2ccccc2)C(=O)N1c1ccccc1` (stereo not given), the TGI [1] is reported as > 100 µM, the TGI [56] is reported as > 100 µM and the TGI [3] is reported as > 100 µM. For the same molecule, the TGI [5] was > 100 µM, the TGI [6] was > 100 µM and the TGI [7] was > 100 µM. For the same molecule, the TGI [8] was > 100 µM, the TGI [10] was > 100 µM and the TGI [11] was > 100 µM. For the same molecule, the TGI [12] was > 100 µM, the TGI [13] was > 100 µM and the TGI [15] was > 100 µM. The TGI [16] was > 100 µM, the TGI [17] was > 100 µM and the TGI [18] was > 100 µM. The TGI [19] was > 100 µM, the TGI [20] was > 100 µM and the TGI [21] was > 100 µM. The TGI [22] was > 100 µM, the TGI [23] was > 100 µM and the TGI [24] was > 100 µM. For the same molecule, the TGI [25] was > 100 µM, the TGI [26] was > 100 µM and the TGI [27] was > 100 µM. The TGI [28] was > 100 µM, the TGI [29] was > 100 µM and the TGI [30] was > 100 µM. The TGI [32] was > 100 µM, the TGI [33] was > 100 µM and the TGI [34] was > 100 µM. The TGI [35] was > 100 µM, the TGI [36] was > 100 µM and the TGI [37] was > 100 µM. For the same molecule, the TGI [38] was > 100 µM, the TGI [39] was > 100 µM and the TGI [40] was > 100 µM. For the same molecule, the TGI [41] was > 100 µM, the TGI [43] was > 100 µM and the TGI [58] was > 100 µM. For the same molecule, the TGI [44] was > 100 µM, the TGI [45] was > 100 µM and the TGI [46] was > 100 µM. For the same molecule, the TGI [55] was > 100 µM, the TGI [47] was > 100 µM and the TGI [48] was > 100 µM. The TGI [49] was > 100 µM, the TGI [50] was > 100 µM and the TGI [51] was > 100 µM. The TGI [52] was > 100 µM, the TGI [59] was > 100 µM and the TGI [53] was > 100 µM. For the same molecule, the TGI [54] was > 100 µM.
